In publication PMC9414676, “Experimental Studies Indicate That ST-2223, the Antagonist of Histamine H3 and Dopamine D2/D3 Receptors, Restores Social Deficits and Neurotransmission Dysregulation in Mouse Model of Autism” (Pharmaceuticals, 2022):

Assays:
[1] = test system: prefrontal cortex of B6 mice; parameters: method as in PMID 16023290; conditions: 0.3 mg/kg of ARP; cited from earlier work
[2] = test system: acetylcholine levels in BTBR mice brain; experiment: Acetylcholine levels by LC-MS/MS in brain regions; format: in vivo; parameters: key to Acetylcholine level: ↔: No significant alterations; ↑: significant increase; ↑↑: additional significant increase vs. ST-2223-treated mice; ↓: significant decrease; conditions: for Acetylcholine level: ARP 1 mg/kg i.p. chronic, vs VEH-treated BTBR mice
Protocol: (§1) All the mice were randomly divided into nine groups of 5–7 mice each. The mice were injected intraperitonially once daily for 21 days with different doses of ST2223 (2.5, 5, and 10 mg/kg, i.p.), ARP 1 mg/kg or vehicle (1% DMSO in 0.9% normal saline). Group I, B6 mice were injected with vehicle served as control. Group II, BTBR mice were treated with vehicle. Groups III–V, BTBR mice received i.p. injections of different doses of ST2223 (2.5, 5, and 10 mg/kg, i.p.), respectively. Group VI, BTBR mice were injected with ARP (1 mg/kg, i.p.). For abrogation studies, Group VII, BTBR mice were treated with ST2223 (5 mg/kg, i.p.) along with RAM (10 mg/kg, i.p.). Group VIII, B6 mice were co-injected with vehicle and RAM (10 mg/kg, i.p). All treatments and vehicle (VEH) were administered 30–45 min before each behavioral test. The doses of these drugs were selected based on previous reports. Behavioral testing was performed between 9:00 am and 3:00 pm in an order randomized by group and in the following sequence: social approach test (SAT) and open field locomotor test (OFL). The chronic treatment started one week before the behavioral test and was continued for a total of 21 days as described above (Figure 7). Following behavioral tests, i.e., on day 21 of systemic treatment, five of the animals were sacrificed. The animals were deeply anesthetized with pentobarbital (40 mg/kg, i.p., body weight). To wash out the blood, cardiac perfusion was carried out using 0.01 M phosphate-buffered saline (PBS) at pH 7.4. The brains were quickly removed and placed on an ice plate, where the cerebellum, hippocampus, prefrontal cortex, and striatum were excised from the brain and snap-frozen in liquid nitrogen for later LC-MS/MS analysis.
(§2) Perfusion was done on anesthetized animals using 1X PBS as described previously. Different regions of the brain were snap frozen. Frozen tissues were then weighed and homogenized in a 10-fold volume of acetonitrile. For 50mg of tissue, 500 µL of acetonitrile and Internal standard mix were added and homogenized. Homogenates were centrifuged at 15,000 rcf for 15 min at 4 °C. Tissue levels of dopamine, acetylcholine, histamine, and their metabolites were assessed using LC-MS/MS. LC-MS/MS analysis was conducted utilizing Waters BEH C18 COLUMN (2.1 × 100 mm, 1.7 µm) using Waters Acquity UPLC Binary Solvent Manager and FTN Sample Manager. The system was run in gradient mode with mobile phase A consisting of LC-MS GRADE WATER + 0.1% FORMIC ACID and mobile phase B consisting of 100% ACETONITRILE. Mobile phase was duly filtered through 0.2 µm filter and degassed ultrasonically for 15 min prior to use. Separations were performed at room temperature with 0.3 mL/min flow rate gradient starting with 90% of A for up to 0.5 min. Then, % of A was decreased gradually until it reached 20% at 2.5 min after which at 3 min %A was brought back to the initial condition and left for equilibration for 2 more minutes before the next injection (total 5 min run time). The injection volume was kept at 1 µL. Mass spectrometric detection was performed in multiple reaction monitoring (MRM) mode with positive electrospray ionization (ESI+) on Xevo TQS mass spectrometer (Waters, Milford, MA) equipped with an electrospray ionization (ESI) source and triple quadrupole mass analyzer. MRM transitions and instrument parameters were set by tuning the instrument by infusing each analyte. MRM transitions taken for quantification were 146.2 > 87.1 for Acetylcholine, 112.2 > 95.2 for Histamine, 154.1 > 137.2 for Dopamine, 150.2 > 91.3 for Acetylcholine D4, and […] > 99.3 for Histamine D4. Capillary Voltage, Source Offset, Source Temperature, De solvation Temperature, Cone Gas Flow, De solvation Gas Flow, Collision Gas Flow, Nebulizer Gas Flow were set as 3.0 (kV), 60.0 (V), 150 (°C), 550 (°C), 150 (L/Hr), 1000 (L/Hr), 0.13 (mL/min), and 7 (Bar), correspondingly. […]

BTBR mice [3] = experiment: Open field locomotor test (OFL), anxiety-like behavior and locomotion; format: in vivo; conditions: ARP 1 mg/kg i.p. chronic
Protocol: as §1
Open field locomotor test (OFL) systematically assesses exploratory activity based on subjecting an animal to an unfamiliar environment whose escape is prevented by surrounding walls. It is a model of anxiety-like behavior, suitable for assessing motor activity as a reaction to an unknown environment, i.e., locomotion motivated by exploration. Both general locomotor activity and anxiety-related behaviors were assessed as the mice were placed individually inside an open field arena (45 × 45 × 30 cm) and were allowed to move freely for 10 min [80]. Mice were introduced into the center area of the arena (23 × 23 cm) and given 5 min habituation before actual behaviors recording. The overall distance moved inside the complete arena and time spent in the center and periphery was recorded for 10 min using CCD camera-assisted motion tracking equipment and software program (EthoVision 3.1, Noldus Information Technology, The Netherlands). Measurements obtained included total distance traveled and center and periphery time spent for […]. After each testing sessions, chambers we cleaned with 70% ethanol, and enough time was allowed for ethanol evaporation and odor dissipation. When evaluating the results, more time spent in the center indicated low levels of anxiety-like behaviors and total distance travelled represented locomotor activity.

[4] = test system: histamine levels in BTBR mice brain; experiment: Histamine levels by LC-MS/MS in brain regions; format: in vivo; parameters: key to Histamine level: ↔: No significant alterations; ↑: significant increase; ↑↑: additional significant increase vs. ST-2223-treated mice; ↓: significant decrease; conditions: ARP 1 mg/kg i.p. chronic, vs VEH-treated BTBR mice
Protocol: as §1, §2

BTBR mice [5] = experiment: Social approach test (SAT), social novelty preference (novel mouse vs familiar mouse); format: in vivo; conditions: ARP 1 mg/kg i.p. chronic, p < 0.001
Protocol: as §1
The social approach test (SAT) was performed using an automated three-chamber device (EthoVision® Software, Noldus, The Netherlands) as previously described. The transparent polycarbonate chamber is rectangular and is composed of three interconnected partitions (homemade), which are separated by two sliding doors. […] For 10 min, the test mouse was allowed to explore all three chambers and cups, and the time spent interacting with NO and NM (sniffing) was automatically recorded by EthoVision® Software. […] The study mouse is allowed to explore the three chambers for 10 min, and the time spent for interacting with both mice was automatically recorded, to assess social novelty preference. […] To allow the direct comparison of social behavior between the treated groups, the sociability index (SI) and social novelty index (SNI) were calculated with the following formula, as previously described: SI=(Time exploring NM−Time exploring NO)/(Time exploring NM+Time exploring NO) SNI=(Time exploring NM−Time exploring FM)/(Time exploring NM+Time exploring FM)

[6] = test system: dopamine levels in BTBR mice brain; experiment: Dopamine levels by LC-MS/MS in brain regions; format: in vivo; parameters: key to Dopamine level: ↔: No significant alterations; ↑: significant increase; ↑↑: additional significant increase vs. ST-2223-treated mice; ↓: significant decrease; conditions: ARP 1 mg/kg i.p. chronic, vs VEH-treated BTBR mice
Protocol: as §1, §2

BTBR mice [7] = experiment: Social approach test (SAT), sociability (novel mouse vs novel object); format: in vivo; conditions: ARP 1 mg/kg i.p. chronic
Protocol: as §1
The social approach test (SAT) was performed using an automated three-chamber device (EthoVision® Software, Noldus, The Netherlands) as previously described. The transparent polycarbonate chamber is rectangular and is composed of three interconnected partitions (homemade), which are separated by two sliding doors. In brief, after 10 min of habituation, the study mouse was placed in the central chamber with the doors opened, and the mouse was given the choice to interact with either an empty plastic cup located in one side chamber, referred to as a novel object (NO), or a similar plastic cup with an unfamiliar mouse inside it located in the opposite chamber, referred to as a novel mouse (NM), which was matched in age, sex, and strain with test mouse. To avoid innate side preferences, the plastic cup for NO and NM were randomly placed in either chamber and the placement was changed between studies and between mice. For 10 min, the test mouse was allowed to explore all three chambers and cups, and the time spent interacting with NO and NM (sniffing) was automatically recorded by EthoVision® Software. Immediately after this session, a novel mouse is kept in the empty cup and is referred to as novel mouse (NM), and the mouse in the other cup from the earlier session is referred to as familiar mouse (FM). The study mouse is allowed to explore the three chambers for 10 min, and the time spent for interacting with both mice was automatically recorded, to assess social novelty preference. Eight groups of 7 mice/group were used for the SAT. To allow the direct comparison of social behavior between the treated groups, the sociability index (SI) and social novelty index (SNI) were calculated with the following formula, as previously described: SI=(Time exploring NM−Time exploring NO)/(Time exploring NM+Time exploring NO) SNI=(Time exploring NM−Time exploring FM)/(Time exploring NM+Time exploring FM)

O=C1CCc2ccc(OCCCCN3CCN(c4cccc(Cl)c4Cl)CC3)cc2N1 [ARP, aripiprazole, reference compound]
DA levels in dialysate [1]: significant increase of DA levels in dialysate | acetylcholine levels ([2]; ARP 1 mg/kg chronic, p < 0.05): signified increase in the levels of acetylcholine in the prefrontal cortex, cerebellum, and striatum tissues | Acetylcholine level ([2]; Cerebellum): ↑ ^b | Acetylcholine level ([2]; Hippocampus): ↔ | Acetylcholine level ([2]; Prefrontal cortex): ↑ ^b | Acetylcholine level ([2]; Striatum): ↑ ^b | abnormal anxiety observed by BTBR mice (BTBR mice [3]): failed to restore the abnormal anxiety | time spent in the periphery (BTBR mice [3]): no group differences | total distance travelled vs VEH-treated BTBR mice (BTBR mice [3]; p < 0.01): significantly decreased the total distance travelled | levels of histamine in brain regions ([4]; p < 0.05): increased the levels of histamine in the cerebellum, striatum, and hippocampus | Histamine level ([4]; Cerebellum): ↑ ^b | Histamine level ([4]; Hippocampus): ↑ ^b | Histamine level ([4]; Prefrontal cortex): ↔ | preference to novel mouse (NM) over familiar mouse (FM) vs VEH-treated BTBR mice (BTBR mice [5]): enhanced preference to stranger NM over FM | Dopamine level ([6]; Cerebellum): ↓^b | Dopamine level ([6]; Hippocampus): ↓^b | Dopamine level ([6]; Prefrontal cortex): ↔ | sociability, time exploring NM compared to NO (BTBR mice [7]): markedly increased sociability | exploring time spent with NM vs VEH-treated BTBR mice (BTBR mice [7]; p < 0.001): significantly improved exploring time spent with NM
